# Experimental data reported in patent US20060057669A1, “Inactive transcription factor tif-ia and uses thereof” (priority 2002, published 2006).
# Read-outs that look alike come from different tables or passages of the source.
# Tests used:
# Pol I transcription [1] = assay: Pol I reporter plasmid pMrl930-BH co-transfection in NIH3T3 cells, Northern blot; type: cell-based; details: 0.25, 0.5 or 1 μg expression vector
# Experimental: (C) Phosphorylation by RSK is necessary and sufficient for enhancing TIF-IA activity in vivo. NIH3T3 cells were co-transfected with 3 μg pMrl930-BH and lor 2.5 μg of pMT2-HA-CA-RSK2 (lanes 2, 3). Transcripts from the reporter plasmid were monitored on Northern blots. An ethidium bromide stain of cellular 18S and 28S rRNA is shown below.
# (C) Transcriptional activity of TIF-IAS44A in vivo. NIH3T3 cells were cotransfected with 2.5 μg Pol I reporter plasmid (pMrl930-BH) and 0.25, 0.5 or 1 μg of pcDNA3.1-TIF-IA (lanes 2-4), TIF-IAS44A (lanes 5-7). Transcripts from the reporter plasmid were monitored on Northern blots. The amount of cellular 18S and 28S rRNA is shown below.
# NIH3T3, HEK293T and CLL39 cells were cultured in Dulbecco's modified Eagles medium (DMEM) supplemented with 10% fetal calf serum. Cells were transfected with 5 μg of DNA per 10^6 cells using the calcium phosphate DNA coprecipitation method. Total RNA was isolated after 48 h and analyzed on Northern blots as described (Voit et al., EMBO J. 18 (1999), 1891-1899). Cellular pre-rRNA levels were monitored by hybridization to antisense RNA complementary to the first 155 nucleotides of unprocessed 45S pre-RNA. Transcripts from the rDNA reporter plasmid were monitored by hybridization to a riboprobe that is complementary to pUC sequences inserted between the rDNA promoter and terminator sequences of pMrl930-BH. […]
# Pol I transcription [2] = assay: Complementation of Pol I transcription in nuclear extracts from rapamycin-treated FM3A cells; type: biochemical
# Experimental: (B) Complementation of transcriptional activity in nuclear extracts from rapamycin-treated cells. Transcription reactions contained nuclear extracts (30 μg) from untreated (NE) or rapamycin-treated (NERapa) FM3A cells. In lanes 3-7, fractions containing partially purified Pol I transcription factors were added to NERapa-containing reactions.
# (C) TIF-IA activates transcription in nuclear extracts form rapamycin-treated cells. Reactions were complemented with either 1 μl (lanes 2 and 5) of cellular TIF-IA (PL-650 fraction) or 20 ng (lanes 3 and 6) of immunopurified recombinant TIF-IA that has been expressed in SF9 cells.
# (A) mTOR rescues transcription in vitro. Pol I transcription was assayed in nuclear extracts from rapamycin-treated FM3A cells. Reactions were supplemented with 50 ng TIF-IA (lane 1) or 10 ng, 20 ng and 30 ng of HA-mTOR (lanes 3-5).
# (B) S6K1 activates Pol I transcription in extracts from rapamycin-treated cells. NERapa was supplemented with 50 ng TIF-IA (lane 1) or 100, 150 and 200 ng of GST-S6K1 (lanes 3-5) or GST-S6K1dd (lanes 6-8).
# Nuclear extracts were prepared from exponentially growing (8×10^5 cells/ml), density-arrested or PD98059-treated (CN Bioscience, Bad Soden, Germany) 40 μM, 0.5 hr) or rapamycin-treated FM3A cells (ATCC, Manassas, USA). 25 μl assays contained 50 ng of template DNA (pMr600/EcoRI), 30 μg nuclear extract proteins and 12 mM Hepes-KOH, [pH8.0], 0.1 mM EDTA, 5 mM MgCl2, 80 mM KCl, 10 mM creatine phosphate, 12% (v/v) glycerol, 0.66 mM each of ATP, GTP and CTP, 0.01 mM UTP and 0.5 μCi [α-^32P]UTP (5000 Ci/mmol). After incubation for 60 min at 30° C., RNA was extracted and analyzed on non-denaturing 5% polyacrylamide gels
# mTOR and S6K1 were purified from HEK293T cells overexpressing HA-tagged mTOR or GST/myc-tagged S6K1, respectively. 5×10^6 cells were lysed in 0.8 ml IP buffer, centrifuged at 10,000×g for 20 min, and the supernatants were incubated for 4 hr at 4° C. with either 15 μg anti-HA antibodies bound to 20 μl protein G-agarose (for HA-mTOR) or 20 μl packed GST-glutathione beads (for GST-myc-S6K1). […]
substance,measurement,setting,value
"TIF-IA: wild-type human transcription initiation factor TIF-IA, accession No. AJ272050",transcription of the Pol I reporter,Pol I transcription [1],enhanced transcription of the reporter
same,rescue of Pol I transcription in extracts from rapamycin-treated cells,Pol I transcription [2],relieved rapamycin-mediated transcriptional repression
same,rescue of Pol I transcription in extracts from rapamycin-treated cells,Pol I transcription [2]; listed as recombinant TIF-IA,restored transcriptional activity
